Entries after “also recorded” stand apart in the source; their conditions may differ.
What was measured:
Female house mosquitoes = assay: Petri dish insecticidal efficacy test (KT100 and mortality after 24 hours); type: in vivo
From the text: The fractionated component E2-4-2 which is a mixture of compound A and compound B was subjected to the insecticidal efficacy test based on the test conditions shown in Table 3, wherein the concentration of the fractionated component E2-4-2, natural pyrethrin, and dl-d-T80-allethrin was further diluted for the test.

adults of house flies = conditions: cited from earlier work
[1] = system: adults of Blattella germanica; conditions: on the basis of the LD50 value by a microdropping method; cited from earlier work

## C=CCC1=C(C)C(OC(=O)C2C(C=C(C)C)C2(C)C)CC1=O (racemic) [dl-d-T80-allethrin]
Female house mosquitoes; Table 4, 0.001 mg/6.15 cm^2
  KT100 value: 50 min
  The mortality after 24 hours: 83%
Female house mosquitoes; Table 4, 0.01 mg/6.15 cm^2
  KT100 value: <5 min
  The mortality after 24 hours: 100%
Female house mosquitoes; Table 4, 0.1 mg/6.15 cm^2
  The mortality after 24 hours: 100%
Female house mosquitoes; Table 4, 0.1 mg/6.15 cm^2, time to 100% knockdown
  KT100 value: <5 min
Female house mosquitoes; Table 5, 10^−1 mg/6.15 cm^2
  KT100 value: <5 min
  The mortality after 24 hours: 100%
Female house mosquitoes; Table 5, 10^−2 mg/6.15 cm^2
  KT100 value: <5 min
  The mortality after 24 hours: 100%
Female house mosquitoes; Table 5, 10^−3 mg/6.15 cm^2
  KT100 value: 50 min
  The mortality after 24 hours: 83%
Female house mosquitoes; Table 5, 10^−4 mg/6.15 cm^2
  KT100 value: >120 min
  The mortality after 24 hours: 17%
Female house mosquitoes; Table 7, 10^−5 mg/6.15 cm^2
  KT100 value: cannot achieved; also recorded: Survive
  The mortality after 24 hours: 0%
Adults of house flies; on the basis of the LD50 value by a microdropping method
  dose required for killing the adults of house flies relative to the dose required for killing the adults of house mosquitoes: about 17 times
Adults of house flies; rounded statement
  dose required for killing the adult house flies relative to the dose required for killing northern house mosquitoes: about 20 times
[1]
  dose required for killing the adults of Blattella germanica relative to the dose required for killing the adults of house mosquitoes: about 103 times
